From US20250206732A1, “COMPOUNDS AND METHODS FOR THE TARGETED DEGRADATION OF KRAS” (Arvinas Operations, Inc., priority 2022, published 2025)

Molecular target: T1, AsPC-1 HiBiT-KRASG12D (Homo sapiens, UniProt P01116, G12D)
T1 construct: insert the HiBiT tag onto the N-terminus of one or more of the endogenous KRAS alleles; endogenous in cells; host or cells: AsPC-1 (ATCC CRL-1682), CRISPR-Cas9 knock-in clone, one tagged allele
Test: HiBiT degradation assay (G12D), AsPC-1 HiBiT-KRASG12D cells
Format: cell-based
Settings: 24 hours treatment; for Dmax: ASPC1, AsPC-1 HiBiT-KRASG12D cells, maximum degradation observed; for DC50: AsPC-1 HiBiT-KRASG12D cells, HiBiT luminescence
Outline: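 AsPC-1 cells (homozygous G12D) carrying a CRISPR knock-in N-terminal HiBiT tag on endogenous KRAS were treated with compounds for 24 hours at 37° C, 5% CO2, in triplicate. Alamar blue viability was read first, then cells were washed and lysed with Nano-Glo HiBiT reagent for 45 minutes before luminescence reading.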

T1 sequence (P01116 1-188 isoform P01116-2 G12D): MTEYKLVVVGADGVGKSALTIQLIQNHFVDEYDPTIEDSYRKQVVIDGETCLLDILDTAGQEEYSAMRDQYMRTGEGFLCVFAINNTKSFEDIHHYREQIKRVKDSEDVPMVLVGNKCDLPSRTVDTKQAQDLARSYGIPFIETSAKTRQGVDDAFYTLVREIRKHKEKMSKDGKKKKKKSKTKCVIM

Row | SMILES | Dmax | DC50
1 | CCc1cccc2cc(O)cc(-c3ncc4c(N5CC6CCC(C5)N6)nc(OC[C@H]5CN(CC6CN(c7cc([C@H](C(=O)N8C[C@H](O)C[C@H]8C(=O)N[C@@H](C)c8ccc(-c9scnc9C)cc8)C(C)C)on7)C6)CCN5C)nc4c3F)c12 [Compound 162, (2S,4R)-1-[(2R)-2-[3-(3-{[(3R)-3-{[(4-{3,8-diazabicyclo[3.2.1]octan-3-yl}-7-(8-ethyl-3-hydroxynaphthalen-1-yl)-8-fluoropyrido[4,3-d]pyrimidin-2-yl)oxy]methyl}-4-methylpiperazin-1-yl]methyl}azetidin-1-yl)-1,2-oxazol-5-yl]-3-methylbutanoyl]-4-hydroxy-N-[(1S)-1-[4-(4-methyl-1,3-thiazol-5-yl)phenyl]ethyl]pyrrolidine-2-carboxamide] | 20 to 60% | < 600 nM
2 | CCc1cccc2cc(O)cc(-c3ncc4c(N5CC6CCC(C5)N6)nc(OC[C@]56CCCN5[C@H](COC(=O)N5CC(COc7cc([C@@H](C(=O)N8C[C@H](O)C[C@H]8C(=O)N[C@@H](C)c8ccc(-c9scnc9C)cc8)C(C)C)on7)C5)CC6)nc4c3F)c12 [Compound 122, [(3S,7aR)-7a-{[(4-{3,8-diazabicyclo[3.2.1]octan-3-yl}-7-(8-ethyl-3-hydroxynaphthalen-1-yl)-8-fluoropyrido[4,3-d]pyrimidin-2-yl)oxy]methyl}-hexahydro-1H-pyrrolizin-3-yl]methyl 3-[({5-[(2S)-1-[(2S,4R)-4-hydroxy-2-{[(1S)-1-[4-(4-methyl-1,3-thiazol-5-yl)phenyl]ethyl]carbamoyl}pyrrolidin-1-yl]-3-methyl-1-oxobutan-2-yl]-1,2-oxazol-3-yl}oxy)methyl]azetidine-1-carboxylate] | 20 to 60% | 600 to 1000 nM
3 | CCc1cccc2cc(O)cc(-c3ncc4c(N5CC6CCC(C5)N6)nc(OCCN5CC(CC6CCN(c7cc([C@H](C(=O)N8C[C@H](O)C[C@H]8C(=O)N[C@@H](C)c8ccc(-c9scnc9C)cc8)C(C)C)on7)CC6)C5)nc4c3F)c12 [Compound 233] | 80 to 100% | < 600 nM
4 | CCc1cccc2cc(O)cc(-c3ncc4c(N5CC6CCC(C5)N6)nc(OCCN5CCC6(CC5)CC(Oc5cc([C@H](C(=O)N7C[C@H](O)C[C@H]7C(=O)N[C@@H](C)c7ccc(-c8scnc8C)cc7)C(C)C)on5)C6)nc4c3F)c12 [Compound 231] | 80 to 100% | < 600 nM
5 | CCc1cccc2cc(O)cc(-c3ncc4c(N5CC6CCC(C5)N6)nc(OCCN5CCC(CC6CN(c7cc([C@H](C(=O)N8C[C@H](O)C[C@H]8C(=O)N[C@@H](C)c8ccc(-c9ccnn9C)cc8)C(C)C)on7)C6)CC5)nc4c3F)c12 (single isomer, unassigned) [Compound 264, (2S,4R)-1-[(2R*)-2-(3-{3-[(1-{2-[(4-{3,8-diazabicyclo[3.2.1]octan-3-yl}-7-(8-ethyl-3-hydroxynaphthalen-1-yl)-8-fluoropyrido[4,3-d]pyrimidin-2-yl)oxy]ethyl}piperidin-4-yl)methyl]azetidin-1-yl}-1,2-oxazol-5-yl)-3-methylbutanoyl]-4-hydroxy-N-[(1S)-1-[4-(1-methyl-1H-pyrazol-5-yl)phenyl]ethyl] pyrrolidine-2-carboxamide] | 80 to 100% | < 600 nM
6 | CCc1cccc2cc(O)cc(-c3ncc4c(N5CC6CCC(C5)N6)nc(OCCN5CC[C@@H]6CN(c7cc([C@H](C(=O)N8C[C@H](O)C[C@H]8C(=O)N[C@@H](C)c8ccc(-c9scnc9C)cc8)C(C)C)on7)C[C@@H]6C5)nc4c3F)c12 (relative stereo) [Compound 71, (2S,4R)-1-[(2R*)-2-{3-[(3aR**,7aR***)-5-{2-[(4-{3,8-diazabicyclo[3.2.1]octan-3-yl}-7-(8-ethyl-3-hydroxynaphthalen-1-yl)-8-fluoropyrido[4,3-d]pyrimidin-2-yl)oxy]ethyl}-octahydro-1H-pyrrolo[3,4-c]pyridin-2-yl]-1,2-oxazol-5-yl}-3-methylbutanoyl]-4-hydroxy-N-[(1S)-1-[4-(4-methyl-1,3-thiazol-5-yl)phenyl]ethyl]pyrrolidine-2-carboxamide] | 80 to 100% | < 600 nM
7 | CCc1cccc2cc(O)cc(-c3ncc4c(N5CCCCCC5)nc(OC[C@@]56CCCN5[C@H](COc5cc([C@H](C(=O)N7C[C@H](O)C[C@H]7C(=O)N[C@@H](C)c7ccc(-c8scnc8C)cc7)C(C)C)on5)CC6)nc4c3F)c12 (single isomer, unassigned) [Compound 338] | 80 to 100% | < 600 nM
8 | CCc1cccc2cc(O)cc(-c3ncc4c(N5CC6CCC(C5)N6)nc(OC[C@@H]5CC[C@@H](COC(=O)N6CCN(c7cc([C@H](C(=O)N8C[C@H](O)C[C@H]8C(=O)N[C@@H](C)c8ccc(-c9scnc9C)cc8)C(C)C)on7)C[C@@H]6C)N5C)nc4c3F)c12 [Compound 261, [(2S,5S)-5-{[(4-{3,8-diazabicyclo[3.2.1]octan-3-yl}-7-(8-ethyl-3-hydroxynaphthalen-1-yl)-8-fluoropyrido[4,3-d]pyrimidin-2-yl)oxy]methyl}-1-methylpyrrolidin-2-yl]methyl (2S)-4-{5-[(2R)-1-[(2S,4R)-4-hydroxy-2-{[(1S)-1-[4-(4-methyl-1,3-thiazol-5-yl)phenyl]ethyl]carbamoyl}pyrrolidin-1-yl]-3-methyl-1-oxobutan-2-yl]-1,2-oxazol-3-yl}-2-methylpiperazine-1-carboxylate] | 80 to 100% | < 600 nM
9 | CCc1cccc2cc(O)cc(-c3ncc4c(N5CC6CCC(C5)N6)nc(OC[C@@]56CCCN5[C@H](COc5cc([C@H](C(=O)N7C[C@H](O)C[C@H]7C(=O)N[C@@H](C)c7ccc(-c8scnc8C)cc7)C(C)C)on5)CC6)nc4c3F)c12 [Compound 29, (2S,4R)-1-[(2R)-2-(3-{[(3S,7aS)-7a-{[(4-{3,8-diazabicyclo[3.2.1]octan-3-yl}-7-(8-ethyl-3-hydroxynaphthalen-1-yl)-8-fluoropyrido[4,3-d]pyrimidin-2-yl)oxy]methyl}-hexahydro-1H-pyrrolizin-3-yl]methoxy}-1,2-oxazol-5-yl)-3-methylbutanoyl]-4-hydroxy-N-[(1S)-1-[4-(4-methyl-1,3-thiazol-5-yl)phenyl]ethyl]pyrrolidine-2-carboxamide] | 80 to 100% | < 600 nM
10 | Cc1ncsc1-c1ccc([C@H](C)NC(=O)[C@@H]2C[C@@H](O)CN2C(=O)[C@@H](c2cc(N3CCN(C(=O)OC[C@H]4CC[C@]5(COc6nc(N7CC8CCC(C7)N8)c7cnc(-c8cccc9ccc(F)c(F)c89)c(F)c7n6)CCCN45)CC3)no2)C(C)C)cc1 (relative stereo) [Compound 63, [(3R,7aS)-7a-{[(4-{3,8-diazabicyclo[3.2.1]octan-3-yl}-7-(7,8-difluoronaphthalen-1-yl)-8-fluoropyrido[4,3-d]pyrimidin-2-yl)oxy]methyl}-hexahydro-1H-pyrrolizin-3-yl]methyl 4-{5-[(2R*)-1-[(2S,4R)-4-hydroxy-2-{[(1S)-1-[4-(4-methyl-1,3-thiazol-5-yl)phenyl]ethyl]carbamoyl}pyrrolidin-1-yl]-3-methyl-1-oxobutan-2-yl]-1,2-oxazol-3-yl}piperazine-1-carboxylate] | 20 to 60% | < 600 nM
11 | CCc1cccc2cc(O)cc(-c3ncc4c(N5CC6CCC(C5)N6)nc(OC[C@@]56CCCN5[C@H](COC(=O)N5CC(COc7cc([C@H](C(=O)N8C[C@H](O)C[C@H]8C(=O)N[C@@H](C)c8ccc(-c9scnc9C)cc8)C(C)C)on7)C5)CC6)nc4c3F)c12 [Compound 114, [(3S,7aS)-7a-{[(4-{3,8-diazabicyclo[3.2.1]octan-3-yl}-7-(8-ethyl-3-hydroxynaphthalen-1-yl)-8-fluoropyrido[4,3-d]pyrimidin-2-yl)oxy]methyl}-hexahydro-1H-pyrrolizin-3-yl]methyl 3-[({5-[(2R)-1-[(2S,4R)-4-hydroxy-2-{[(1S)-1-[4-(4-methyl-1,3-thiazol-5-yl)phenyl]ethyl]carbamoyl}pyrrolidin-1-yl]-3-methyl-1-oxobutan-2-yl]-1,2-oxazol-3-yl}oxy)methyl]azetidine-1-carboxylate] | 80 to 100% | < 600 nM
12 | C#Cc1c(F)ccc2cc(O)cc(-c3ncc4c(N5CC6CCC(C5)N6)nc(OCCN5CCC(F)(CN6CCN(c7cc([C@H](C(=O)N8C[C@H](O)C[C@H]8C(=O)N[C@@H](C)c8ccc(-c9ccnn9C)cc8)C(C)C)on7)CC6)CC5)nc4c3F)c12 [Compound 198, (2S,4R)-1-[(2R)-2-(3-{4-[(1-{2-[(4-{3,8-diazabicyclo[3.2.1]octan-3-yl}-7-(8-ethynyl-7-fluoro-3-hydroxynaphthalen-1-yl)-8-fluoropyrido[4,3-d]pyrimidin-2-yl)oxy]ethyl}-4-fluoropiperidin-4-yl)methyl]piperazin-1-yl}-1,2-oxazol-5-yl)-3-methylbutanoyl]-4-hydroxy-N-[(1S)-1-[4-(1-methyl-1H-pyrazol-5-yl)phenyl]ethyl]pyrrolidine-2-carboxamide] | 80 to 100% | < 600 nM
13 | CCc1cccc2cc(O)cc(-c3ncc4c(N5CC6CCC(C5)N6)nc(N5CCC(CN6CCC(CC7CN(c8cc([C@H](C(=O)N9C[C@H](O)C[C@H]9C(=O)N[C@@H](C)c9ccc(-c%10scnc%10C)cc9)C(C)C)on8)C7)CC6)CC5)nc4c3F)c12 [Compound 192, (2S,4R)-1-[(2R)-2-(3-{3-[(1-{[1-(4-{3,8-diazabicyclo[3.2.1]octan-3-yl}-7-(8-ethyl-3-hydroxynaphthalen-1-yl)-8-fluoropyrido[4,3-d]pyrimidin-2-yl)piperidin-4-yl]methyl}piperidin-4-yl)methyl]azetidin-1-yl}-1,2-oxazol-5-yl)-3-methylbutanoyl]-4-hydroxy-N-[(1S)-1-[4-(4-methyl-1,3-thiazol-5-yl)phenyl]ethyl]pyrrolidine-2-carboxamide] |  | > 3000 nM
